# Literature values, collected in PubChem BioAssay AID1259409 (Chemical Carcinogenesis Research Information System (CCRIS), 2018).
# Test system: rodent chemically induced tumor inhibition, incidence and multiplicity
# Assay: CCRIS tumor inhibitor studies
compound,measurement,setting,value
CC[C@H](CC[C@@H](C)[C@H]1CC[C@H]2[C@@H]3CC=C4C[C@@H](O)CC[C@]4(C)[C@H]3CC[C@]12C)C(C)C,"tumour outcome (control, treated, inhibition, significance)","Carcinogen: 7,12-DIMETHYLBENZ[A]ANTHRACENE, 57-97-6, Dose [Inhibitor]: 0, 5 UMOL 2/WK BEGINNING 1 WK POST CARCINOGEN TREATMENT AND CONTINUING FOR 18 WK (STUDY DURATION: 19 WK), Route [Inhibitor]: DERMAL, Species: MOUSE, Strain/Sex: ICR/FEMALE, Target Tissue: Type of Lesion: SKIN: PAPILLOMA, Dose [Carcinogen]: 50 UG ONCE, Promoter: 12-O-TETRADECANOYLPHORBOL-13-ACETATE, 16561-29-8","100%, 80%, 20%, not calculated"
same,"tumour outcome (control, treated, inhibition, significance)","Carcinogen: AZOXYMETHANE, 25843-45-2, Dose [Inhibitor]: 2 G/KG DIET DAILY FOR 26 WK STARTING SIMULTANEOUSLY WITH CARCINOGEN TREATMENT (STUDY DURATION: 26 WK), Route [Inhibitor]: ORAL, Species: RAT, Strain/Sex: SPRAGUE-DAWLEY/MALE, Target Tissue: Type of Lesion: LARGE INTESTINE: MALIGNANT TUMOR, Dose [Carcinogen]: 8 MG/KG BW INJECTED 1/WK FOR 8 WK, Promoter: NONE USED","90%, 93%, -3%, not significant"
same,"tumour outcome (control, treated, inhibition, significance)","Carcinogen: AZOXYMETHANE, 25843-45-2, Dose [Inhibitor]: 2 G/KG DIET DAILY FOR 26 WK STARTING SIMULTANEOUSLY WITH CARCINOGEN TREATMENT (STUDY DURATION: 26 WK), Route [Inhibitor]: ORAL, Species: RAT, Strain/Sex: SPRAGUE-DAWLEY/MALE, Target Tissue: Type of Lesion: SMALL INTESTINE: MALIGNANT TUMOR, Dose [Carcinogen]: 8 MG/KG BW INJECTED 1/WK FOR 8 WK, Promoter: NONE USED","90%, 96%, -7%, not significant"
same,"tumour outcome (control, treated, inhibition, significance)","Carcinogen: AZOXYMETHANE, 25843-45-2, Dose [Inhibitor]: 2 G/KG DIET DAILY STARTING SIMULTANEOUSLY WITH CARCINOGEN TREATMENT AND CONTINUING THROUGH END OF STUDY (STUDY DURATION:, Route [Inhibitor]: ORAL, Species: RAT, Strain/Sex: SPRAGUE-DAWLEY/MALE, Target Tissue: Type of Lesion: LARGE INTESTINE: MALIGNANT TUMOR, Dose [Carcinogen]: 8 MG/KG BW 1/WK FOR 8 WK, Promoter: NONE USED","90%, 93%, -3%, not significant"
same,"tumour outcome (control, treated, inhibition, significance)","Carcinogen: AZOXYMETHANE, 25843-45-2, Dose [Inhibitor]: 2 G/KG DIET DAILY STARTING SIMULTANEOUSLY WITH CARCINOGEN TREATMENT AND CONTINUING THROUGH END OF STUDY (STUDY DURATION:, Route [Inhibitor]: ORAL, Species: RAT, Strain/Sex: SPRAGUE-DAWLEY/MALE, Target Tissue: Type of Lesion: SMALL INTESTINE: MALIGNANT TUMOR, Dose [Carcinogen]: 8 MG/KG BW 1/WK FOR 8 WK, Promoter: NONE USED","90%, 96%, -7%, not significant"
same,"tumour outcome (control, treated, inhibition, significance)","Carcinogen: N-METHYL-N-NITROSOUREA, 684-93-5, Dose [Inhibitor]: 0.2% IN DIET DAILY FOR 28 WK STARTING SIMULTANEOUSLY WITH CARCINOGEN TREATMENT AND CONTINUING FOR DURATION OF STUDY (STU, Route [Inhibitor]: ORAL, Species: RAT, Strain/Sex: FISCHER CD/MALE, Target Tissue: Type of Lesion: COLON: ADENOMA, Dose [Carcinogen]: 2 MG IN 0.5 ML OF 0.9% NACL SOLUTION 1/3 D FOR 10 D, Promoter: NONE USED","38/71 (54%), 16/48 (33%), 39%, p<0.05"
